The NIST ThermoML archive (doi:10.1016/j.fluid.2010.03.010)
± gives the expanded uncertainty stated by the source.

Experiment: molar heat capacity at constant pressure
Settings: 101.33 kPa, Liquid, Differential Scanning Calorimetry

Row | SMILES | molar heat capacity at constant pressure (308.16 K) [J/K/mol] | molar heat capacity at constant pressure (313.16 K) [J/K/mol] | molar heat capacity at constant pressure (318.16 K) [J/K/mol] | molar heat capacity at constant pressure (323.16 K) [J/K/mol] | molar heat capacity at constant pressure (328.22 K) [J/K/mol] | molar heat capacity at constant pressure (333.22 K) [J/K/mol] | molar heat capacity at constant pressure (338.19 K) [J/K/mol] | molar heat capacity at constant pressure (343.18 K) [J/K/mol] | molar heat capacity at constant pressure (348.25 K) [J/K/mol] | molar heat capacity at constant pressure (353.18 K) [J/K/mol] | molar heat capacity at constant pressure (358.25 K) [J/K/mol] | molar heat capacity at constant pressure (363.18 K) [J/K/mol]
1 | CCCC[n+]1ccn(C)c1.O=S(=O)([N-]S(=O)(=O)C(F)(F)F)C(F)(F)F | 573.13 ± 17 | 575.92 ± 17 | 577.32 ± 17 | 581.51 ± 17 | 584.31 ± 18 | 588.5 ± 18 | 588.5 ± 18 | 592.7 ± 18 | 595.49 ± 18 | 596.89 ± 18 | 599.68 ± 18 | 602.48 ± 18
2 | CCCCn1cc[n+](C)c1.N#CN=C=[N-] [1-butyl-3-methylimidazolium dicyanamide] | 381.78 ± 11 | 384.86 ± 12 | 382.81 ± 11 | 386.92 ± 12 | 386.92 ± 12 | 388.97 ± 12 | 391.02 ± 12 | 392.05 ± 12 | 394.1 ± 12 | 395.13 ± 12 | 396.15 ± 12 | 399.23 ± 12
3 | CCOS(=O)(=O)[O-].CCn1cc[n+](C)c1 [1-ethyl-3-methylimidazolium ethyl sulfate] | 393.42 ± 12 | 396.97 ± 12 | 399.33 ± 12 | 402.06 ± 12 | 405.24 ± 12 | 406.42 ± 12 | 408.78 ± 12 | 411.14 ± 12 | 414.69 ± 12 | 415.87 ± 12 | 418.23 ± 13 | 420.6 ± 13
